Assay [1] is described as follows: Binding affinity at 3'-Fl-18-Rh-C11U T box antiterminator model RNA by FRET assay. Details: species or system Bacillus subtilis.
Assay [2] is described as follows: Binding affinity at RNAs 3'-Fl-18-Rh-AM1A T box antiterminator model RNA by FRET assay. Details: species or system Bacillus subtilis.
Assay [3] deals with T1, Guanyl-specific ribonuclease T1 (Aspergillus oryzae (strain ATCC 42149 / RIB 40)) (UniProt P00651).
T1 sequence (whole entry): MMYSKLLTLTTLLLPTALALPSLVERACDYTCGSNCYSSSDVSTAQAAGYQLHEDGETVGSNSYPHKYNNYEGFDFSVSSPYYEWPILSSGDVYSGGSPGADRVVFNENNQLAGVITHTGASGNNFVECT
The experiment in a line: Decrease in Aspergillus oryzae RNase T1 cleavage in AM1A T box antiterminator model RNA.

A further assay deals with Bacillus subtilis. The experiment in a line: Reduction of Bacillus subtilis tRNA-glycine-dependent antitermination at 1.3 mM in presence on RNA polymerase. Further details: scale not given: the % may be the effect or the level left.
For assay [4], the target named is T1, Guanyl-specific ribonuclease T1 (Aspergillus oryzae (strain ATCC 42149 / RIB 40)). Nature of the assay: Reduction of Aspergillus oryzae RNase T1 induced cleavage at position 8 of AM1A T box antiterminator model RNA. Further details: scale not given: the % may be the effect or the level left.
Assay [5] has the same target. Nature of the assay: Reduction of Aspergillus oryzae RNase T1 cleavage in position 9 of AM1A T box antiterminator model RNA. Details: scale not given: the % may be the effect or the level left.
Assay [6] shares this target. The experiment in a line: Enhancement of Aspergillus oryzae RNase T1 cleavage in position 15 of AM1A T box antiterminator model RNA.
The target is the same in assay [7]. Nature of the assay: Reduction of Aspergillus oryzae RNase T1 cleavage in position 7 of AM1A T box antiterminator model RNA. Details: scale not given: the % may be the effect or the level left.
Assay [8] in a line: Binding affinity at AM1A T box antiterminator model RNA in presence of cognate tRNA. Details: species or system Bacillus subtilis.

Structures are written as SMILES. pKd: −log10 of the molar value. Calls of active or inactive are those of the source. No cut-off for these calls is given here. Some results are limits rather than exact numbers.

Data on 7 compounds can be found in ChEMBL document CHEMBL1145582, “4,5-Disubstituted oxazolidinones: High affinity molecular effectors of RNA function” (Bioorg Med Chem Lett, 2008).

Broadly, the pKd is the negative decadic logarithm of the Kd, by convention in mol/L.

As for `CCCCCCCC(=O)OC[C@H]1OC(=O)N[C@@H]1CN(C)c1ccccc1`, the negative-log Kd (pKd) in assay [1] was 5.39; in assay [2], 5.18.
For `O=C(Cc1ccccc1)OC[C@H]1OC(=O)N[C@@H]1Cc1ccccc1`, in that order: 3.90 and 5.05.
The like results for `CN(C[C@H]1NC(=O)O[C@@H]1COC(=O)Cc1ccccc1)c1ccccc1` were, in that order, 3.91 and 4.21.
As to `CC(=O)c1ccc(NC(=O)OC[C@H]2OC(=O)N[C@@H]2CN2CCN(c3ccccc3)CC2)cc1`, the pKd in assay [1] was more than 6.00; in assay [2], 6.05. In addition, the result in assay [3] was Active.
On to `O=C(Cc1ccccc1)OC[C@H]1OC(=O)N[C@@H]1CN1CCN(c2ccccc2)CC1`, for which the pKd in assay [1] is 4.00; in [2], 4.89; in assay [8], 4.19. The Activity is 40% in the assay on Bacillus subtilis; 41% in assay [4]; 57% in assay [5]; 70% in assay [6]; 44% in assay [7].
As to `CN(CCc1ccccc1)C[C@H]1NC(=O)O[C@@H]1COC(=O)Cc1ccccc1`, in assay [2], the negative-log Kd (pKd) is 3.94.
The compound `O=C(Cc1ccccc1)OC[C@H]1OC(=O)N[C@@H]1CN1CCOCC1` showed a pKd in [2] of 4.38.
